Activity calls are given as the source filed them. The rule behind the calls is not given here.
What was measured:
Mesenchymal stem cells [1] = test: Cytotoxicity against human BMMSC cells assessed as effect on cell viability upto 1 uM incubated for 24 hrs by CCK8 assay; assay type: toxicity, cell-based
DNA [2] = test: Binding affinity to N-terminal of 10-mer c-DNA (unknown origin) assessed as melting temperature at 4 uM by UV-Vis spectrophotometric analysis; assay type: nucleic-acid assay
DNA [3] = test: Binding affinity to C-terminal of 10-mer c-DNA (unknown origin) assessed as melting temperature at 4 uM by UV-Vis spectrophotometric analysis; assay type: nucleic-acid assay
Mesenchymal stem cells [4] = test: Inhibition of SULF2 mRNA expression in human BMMSC cells at 0.1 uM by RT-qPCR analysis; assay type: functional, cell-based
Mesenchymal stem cells [5] = test: Inhibition of SULF2 mRNA expression in human BMMSC cells by RT-qPCR analysis; assay type: functional, cell-based; settings: dose 0.01-1 µM
Mesenchymal stem cells [6] = test: Anti-adipogenic activity in insulin/dexamthasone/pioglitazone/IBMX differentiated human BMMSC cells assessed as downregulation of adiponectin protein secretion at 1 uM by ELISA; assay type: functional, cell-based
Mesenchymal stem cells [7] = test: Anti-adipogenic activity in insulin/dexamthasone/pioglitazone/IBMX differentiated human BMMSC cells assessed as downregulation of adiponectin protein secretion by ELISA; assay type: functional, cell-based
Mesenchymal stem cells [8] = test: Anti-adipogenic activity in insulin/dexamthasone/pioglitazone/IBMX differentiated human BMMSC cells assessed as decrease in size of intracellular lipid droplets by Oil red O staining based inverted microscopic analysis; assay type: functional, cell-based; settings: dose 0.01-1 µM
Mesenchymal stem cells [9] = test: Anti-adipogenic activity in insulin/dexamthasone/pioglitazone/IBMX differentiated human BMMSC cells assessed as decrease in number of intracellular lipid droplets by Oil red O staining based inverted microscopic analysis; assay type: functional, cell-based; settings: dose 0.01-1 µM
Mesenchymal stem cells [10] = test: Effect on osteogenesis in ascorbic acid/dexamethasone/beta-glycerol phosphate differentiated human BMMSC cells; assay type: functional, cell-based
DNA [11] = test: Binding affinity to c-DNA (unknown origin) with mismatch bases assessed as increase in melting temperature by UV-vis spectrophotometric analysis; assay type: nucleic-acid assay
DNA [12] = test: Binding affinity to 10-mer DNA (unknown origin) assessed as melting temperature at 4 uM by UV-Vis spectrophotometric analysis; assay type: nucleic-acid assay
[13] = Drug penetration in human BMMSC cells assessed as green fluorescence signal at 0.1 uM incubated for 24 hrs by DAPI staining based confocal microscopic analysis; assay type: ADME, cell-based; settings: mesenchymal stem cells

| Tm (DNA [2]) | Tm (DNA [3]) | IC50 (Mesenchymal stem cells [7]) | Activity (DNA [11]) | Tm (DNA [12]) | Drug uptake [13] | Structure (SMILES) | Activity (Mesenchymal stem cells [1]) | inhibition (Mesenchymal stem cells [4]) | inhibition (Mesenchymal stem cells [5]) | Activity (Mesenchymal stem cells [6]) | Activity (Mesenchymal stem cells [7]) | Activity (Mesenchymal stem cells [8]) | Activity (Mesenchymal stem cells [9]) | Activity (Mesenchymal stem cells [10]) |
| --- | --- | --- | --- | --- | --- | --- | --- | --- | --- | --- | --- | --- | --- | --- |
| 68.1 °C | 64 °C | 0.28 µM | – | – | – | Cc1cn(CC(=O)N(CCNC(=O)CN(CCNC(=O)CN(CCNC(=O)CN(CCNC(=O)CN(CCNC(=O)CN(CCNC(=O)CN(CCNC(=O)CN(CCNC(=O)CN(CCNC(=O)CN(CCNC(=O)CN(CCNC(=O)OCCC2c3ccccc3-c3ccccc32)C(=O)Cn2cc(C)c(=O)[nH]c2=O)C(=O)Cn2cnc3c(=O)[nH]c(N)nc32)C(=O)Cn2cnc3c(=O)[nH]c(N)nc32)C(=O)Cn2cnc3c(N)nc(NCCCCCN)nc32)C(=O)Cn2cnc3c(=O)[nH]c(N)nc32)C(=O)Cn2cnc3c(=O)[nH]c(N)nc32)C(=O)Cn2cnc3c(N)nc(NCCCCCN)nc32)C(=O)CN2C=NC3C(=O)NC(N)=NC32)C(=O)Cn2ccc(N)nc2=O)C(=O)Cn2cnc3c(=O)[nH]c(NCCCCCCN)nc32)CC(=O)NCCN(CC(=O)NCCN(CC(=O)NCCN(CC(=O)NCCN(CC(=O)NCCN(CC(=O)NCCN(CC(=O)NCCN(CC(=O)NCCN(CC(=O)NCCN(N)C(=O)Cn2cnc3c(=O)[nH]c(N)nc32)C(=O)Cn2cnc3c(N)nc(NCCCCCN)nc32)C(=O)Cn2ccc(N)nc2=O)C(=O)Cn2cnc3c(N)ncnc32)C(=O)Cn2cnc3c(N)ncnc32)C(=O)Cn2cnc3c(=O)[nH]c(NCCCCCCN)nc32)C(=O)Cn2cnc3c(=O)[nH]c(N)nc32)C(=O)Cn2cnc3c(N)ncnc32)C(=O)Cn2cnc3c(=O)[nH]c(N)nc32)c(=O)[nH]c1=O (stereo unspecified) | Non-toxic | Active | Dose-dependent-effect | Active | Dose-dependent-effect | Dose-dependent-effect | Dose-dependent-effect | inactive |
| 66.4 °C | 51.1 °C | – | – | – | – | Cc1cn(CC(=O)N(CCNC(=O)CN(CCNC(=O)CN(CCNC(=O)CN(CCNC(=O)CN(CCNC(=O)CN(CCNC(=O)CN(CCNC(=O)CN(CCNC(=O)CN(CCNC(=O)CN(CCNC(=O)CN(CCNC(=O)CN(CCNC(=O)CN(CCNC(=O)CN(CCNC(=O)CN(CCNC(=O)CN(CCNC(=O)CN(CCNC(=O)CN(CCNC(=O)OCCC2c3ccccc3-c3ccccc32)C(=O)Cn2cc(C)c(=O)[nH]c2=O)C(=O)Cn2cnc3c(=O)[nH]c(N)nc32)C(=O)Cn2ccc(N)nc2=O)C(=O)Cn2cnc3c(N)nc(NCCCCCN)nc32)C(=O)Cn2cc(C)c(=O)[nH]c2=O)C(=O)Cn2cnc3c(=O)[nH]c(N)nc32)C(=O)Cn2cnc3c(=O)[nH]c(N)nc32)C(=O)Cn2cnc3c(N)nc(NCCCCCN)nc32)C(=O)Cn2cnc3c(N)ncnc32)C(=O)Cn2ccc(N)nc2=O)C(=O)Cn2cc3cc(COCCN)[nH]c3nc2=O)C(=O)Cn2cc(C)c(=O)[nH]c2=O)C(=O)Cn2cnc3c(=O)[nH]c(N)cc32)C(=O)Cn2ccc(N)nc2=O)C(=O)Cn2cnc3c(N)nc(NCCCCCN)nc32)C(=O)Cn2cnc3c(N)ncnc32)C(=O)Cn2cnc3c(=O)[nH]c(NCCCCCCN)nc32)CC(=O)NCCN(CC(=O)NCCN(CC(N)=O)C(=O)Cn2cnc3c(N)ncnc32)C(=O)Cn2ccc(N)nc2=O)c(=O)[nH]c1=O | Non-toxic | inactive | – | – | – | – | – | inactive |
| > 90 °C | – | > 1 µM | – | – | – | Cc1cn(CC(=O)N(CCNC(=O)CN(CCNC(=O)CN(CCNC(=O)CN(CCNC(=O)CN(CCNC(=O)CN(CCNC(=O)CN(CCNC(=O)CN(CCNC(=O)CN(CCNC(=O)CN(CCNC(=O)CN(CCNC(=O)CN(CCNC(=O)CN(CCNC(=O)CN(CCNC(=O)CN(CCNC(=O)CN(CCNC(=O)CN(CCNC(=O)CN(CCNC(=O)CN(CCNC(=O)CN(CCNC(=O)OCCC2c3ccccc3-c3ccccc32)C(=O)Cn2cnc3c(=O)[nH]c(N)nc32)C(=O)Cn2cnc3c(=O)[nH]c(NCCCCCCN)nc32)C(=O)Cn2cnc3c(=O)[nH]c(N)nc32)C(=O)Cn2cnc3c(=O)[nH]c(N)nc32)C(=O)Cn2cc3cc(COCCN)[nH]c3nc2=O)C(=O)Cn2ccc(N)nc2=O)C(=O)Cn2ccc(N)nc2=O)C(=O)Cn2cnc3c(N)nc(NCCCCCN)nc32)C(=O)Cn2cc(C)c(=O)[nH]c2=O)C(=O)Cn2ccc(N)nc2=O)C(=O)Cn2cc(C)c(=O)[nH]c2=O)C(=O)Cn2cc(C)c(=O)[nH]c2=O)C(=O)Cn2cc3cc(COCCN)[nH]c3nc2=O)C(=O)Cn2cc(C)c(=O)[nH]c2=O)C(=O)Cn2cc(C)c(=O)[nH]c2=O)C(=O)Cn2cc(C)c(=O)[nH]c2=O)C(=O)Cn2cc(C)c(=O)[nH]c2=O)C(=O)Cn2cc(C)c(=O)[nH]c2=O)C(=O)Cn2cc(C)c(=O)[nH]c2=O)CC(N)=O)c(=O)[nH]c1=O | Non-toxic | Mild_effect | Dose-dependent-effect | Active | – | – | – | inactive |
| 83.5 °C | 75.5 °C | > 1 µM | – | – | – | Cc1cn(CC(=O)N(CCNC(=O)CN(CCNC(=O)CN(CCNC(=O)CN(CCNC(=O)CN(CCNC(=O)CN(CCNC(=O)CN(CCNC(=O)CN(CCNC(=O)CN(CCNC(=O)CN(CCNC(=O)CN(CCNC(=O)CN(CCNC(=O)CN(CCNC(=O)CN(CCNC(=O)CN(CCNC(=O)CN(CCNC(=O)CN(CCNC(=O)OCCC2c3ccccc3-c3ccccc32)C(=O)Cn2cnc3c(=O)[nH]c(N)nc32)C(=O)Cn2cnc3c(=O)[nH]c(NCCCCCCN)nc32)C(=O)Cn2cnc3c(=O)[nH]c(N)nc32)C(=O)Cn2ccc(N)nc2=O)C(=O)Cn2cnc3c(N)nc(NCCCCCN)nc32)C(=O)Cn2cnc3c(=O)[nH]c(N)nc32)C(=O)Cn2ccc(N)nc2=O)C(=O)Cn2cnc3c(N)ncnc32)C(=O)Cn2ccc(N)nc2=O)C(=O)Cn2cnc3c(N)nc(NCCCCCN)nc32)C(=O)Cn2cc(C)c(=O)[nH]c2=O)C(=O)Cn2cnc3c(=O)[nH]c(N)nc32)C(=O)Cn2cnc3c(=O)[nH]c(N)nc32)C(=O)Cn2cnc3c(=O)[nH]c(NCCCCCCN)nc32)C(=O)Cn2cc(C)c(=O)[nH]c2=O)C(=O)Cn2cnc3c(=O)[nH]c(N)nc32)CC(N)=O)c(=O)[nH]c1=O | Non-toxic | Active | Dose-dependent-effect | Active | – | – | – | inactive |

Second part, the compound before the results:

| Structure (SMILES) | Tm (DNA [2]) | Tm (DNA [3]) | IC50 (Mesenchymal stem cells [7]) | Activity (DNA [11]) | Tm (DNA [12]) | Drug uptake [13] | Activity (Mesenchymal stem cells [1]) | inhibition (Mesenchymal stem cells [4]) | inhibition (Mesenchymal stem cells [5]) | Activity (Mesenchymal stem cells [6]) | Activity (Mesenchymal stem cells [7]) | Activity (Mesenchymal stem cells [8]) | Activity (Mesenchymal stem cells [9]) | Activity (Mesenchymal stem cells [10]) |
| --- | --- | --- | --- | --- | --- | --- | --- | --- | --- | --- | --- | --- | --- | --- |
| Cc1cn(CC(=O)N(CCNC(=O)CN(CCNC(=O)CN(CCNC(=O)CN(CCNC(=O)CN(CCNC(=O)CN(CCNC(=O)CN(CCNC(=O)CN(CCNC(=O)CN(CCNC(=O)CN(CCNC(=O)CN(CCNC(=O)CN(CCNC(=O)CN(CCNC(=O)CN(CCNC(=O)CN(CCNC(=O)CN(CCNC(=O)CN(CCNC(=O)CN(CCNC(=O)CN(CCNC(=O)OCCC2c3ccccc3-c3ccccc32)C(=O)Cn2ccc(N)nc2=O)C(=O)Cn2cc(C)c(=O)[nH]c2=O)C(=O)Cn2cc(C)c(=O)[nH]c2=O)C(=O)Cn2cc3cc(COCCN)[nH]c3nc2=O)C(=O)Cn2cc(C)c(=O)[nH]c2=O)C(=O)Cn2cc(C)c(=O)[nH]c2=O)C(=O)Cn2cc(C)c(=O)[nH]c2=O)C(=O)Cn2cc(C)c(=O)[nH]c2=O)C(=O)Cn2cc(C)c(=O)[nH]c2=O)C(=O)Cn2cc(C)c(=O)[nH]c2=O)C(=O)Cn2cc(C)c(=O)[nH]c2=O)C(=O)Cn2cnc3c(=O)[nH]c(NCCCCCCN)nc32)C(=O)Cn2ccc(N)nc2=O)C(=O)Cn2cc(C)c(=O)[nH]c2=O)C(=O)Cn2cnc3c(=O)[nH]c(N)nc32)C(=O)Cn2cnc3c(N)nc(NCCCCCN)nc32)C(=O)Cn2cc(C)c(=O)[nH]c2=O)C(=O)Cn2ccc(N)nc2=O)CC(=O)NCCN(CC(N)=O)C(=O)Cn2cnc3c(=O)[nH]c(NCCCCCCN)nc32)c(=O)[nH]c1=O | – | 70 °C | > 1 µM | – | – | – | Non-toxic | Mild_effect | Dose-dependent-effect | Active | – | – | – | inactive |
| NCCCCCNc1nc(N)c2ncn(CC(=O)N(CCNC(=O)CN(CCNC(=O)CN(CCNC(=O)CN(CCN)C(=O)Cn3cnc4c(N)ncnc43)C(=O)Cn3cnc4c(=O)[nH]c(N)nc43)C(=O)Cn3ccc(N)nc3=O)CC(=O)NCCN(CC(=O)NCCN(CC(=O)NCCN(CC(=O)NCCN(CC(=O)NCCN(CC(=O)NCCN(CC(N)=O)C(=O)Cn3cnc4c(N)ncnc43)C(=O)Cn3ccc(N)nc3=O)C(=O)Cn3cnc4c(N)nc(NCCCCCN)nc43)C(=O)Cn3cnc4c(=O)[nH]c(N)nc43)C(=O)Cn3cnc4c(N)nc(NCCCCCN)nc43)C(=O)Cn3ccc(N)nc3=O)c2n1 | – | – | – | inactive | 73.6 °C | – | – | – | – | – | – | – | – | – |
| O=C(O)c1ccc2c(c1)C(=O)OC21c2ccc(O)cc2Oc2cc(O)ccc21 | – | – | – | – | – | Active | – | – | – | – | – | – | – | – |
